Measurements reported in article PMC7469199, “Immunosuppressive Activities of Novel PLA2 Inhibitors from Xenorhabdus hominickii, an Entomopathogenic Bacterium” (Insects, 2020).

Columns and labels:
[1] = tested on: S. exigua larvae; assay: Insecticidal activity by injection; format: in vivo, Spodoptera exigua; settings: for Insecticidal Activities, Injection: median lethal dose by Probit analysis, S. exigua larvae
Procedure: All data for continuous variables were subjected to one-way analysis of variance (ANOVA) using PROG GLM in SAS program. Mortality data were subjected to arcsine transformation and used for ANOVA. Means were compared with the least significant difference (LSD) test at Type I error of 0.05. Median toxicity values such as median lethal dose (LD50), median lethal concentration (LC50), median lethal time (LT50), and median inhibition concentrations (IC50) were calculated by Probit analysis using EPA Probit Analysis Program, ver. 1.5 (U.S. Environmental Protection Agency, Washington, DC, USA). […]

[2] = tested on: secretory PLA2 (sPLA2); assay: Secretory PLA2 (sPLA2) activity; format: biochemical, Spodoptera exigua; settings: for Median Inhibitory Concentrations (IC50), sPLA2: S. exigua, synthetic compounds; for Potency for inhibiting sPLA2 (in words): based on IC50 values
Procedure: (§1) To characterize PLA2 inhibition by test chemicals, activities of two different PLA2s [secretory PLA2 (sPLA2) and cytosolic PLA2 (cPLA2)] were assessed with methods described by Vatanparast et al..

[3] = tested on: hemocyte nodule formation; assay: Nodulation assay after E. coli injection in L5 larvae; format: in vivo, Spodoptera exigua; settings: for Median Inhibitory Concentration (IC50), Nodulation: injected into L5 larvae with E. coli, nodules counted after 8 h
Procedure: To assess nodule formation, immune challenge was performed by injecting 3 µL of Escherichia coli Top10 (10^4 cells/larva) (Invitrogen, Madison, WI, USA) through the abdominal proleg of L5 larvae using a microsyringe (Hamilton, Reno, NV, USA). After incubating at 25 °C for 8 h, test insects were dissected to count the number of melanized nodules under a stereo microscope (Stemi SV11, Zeiss, Jena, Germany) at 50× magnification. For chemical test, 1 µL aliquot of test chemical at different concentrations was injected into each larva along with E. coli. AA was injected at 10 μg per larva. Each treatment was independently replicated five times.

[4] = tested on: S. exigua larvae; assay: Feeding toxicity, leaf-dipping method; format: in vivo, Spodoptera exigua; settings: for Insecticidal Activities, Feeding: median lethal concentration by Probit analysis, leaf-dipping
Procedure: (§2) For the virulence test of X. hominickii, 24 h-cultured cells (10^8 cfu/mL) were diluted with sterile PBS. After surface sterilization with 95% ethanol, each L5 larva was injected with 1 µL of test compound (1 µg/larva) along with bacterial suspension (10^2 cfu/larva). Injection was performed through the first abdominal proleg using a micro syringe. Injected larvae were incubated at room temperature individually in 9 cm Petri dishes. For oral toxicity assay of B. thuringiensis, a small piece (2 × 2 cm) of Chinese cabbage was dipped in 500 ppm of Bt or a mixture of Bt (500 ppm) with 500 ppm of test chemical for 5 min. After a brief (5 min) drying under a dark condition, the treated leaf was supplied to individual test larva in 9 cm Petri dish for 24 h at room temperature. After 24 h, larvae were fed with fresh cabbage leaves. Each treatment was replicated three times with 10 larvae per replication. […] Larvae were considered dead if they were unable to move in a coordinated manner when prodded with a blunt probe.
All data for continuous variables were subjected to one-way analysis of variance (ANOVA) using PROG GLM in SAS program. Mortality data were subjected to arcsine transformation and used for ANOVA. Means were compared with the least significant difference (LSD) test at Type I error of 0.05. Median toxicity values such as median lethal dose (LD50), median lethal concentration (LC50), median lethal time (LT50), and median inhibition concentrations (IC50) were calculated by Probit analysis using EPA Probit Analysis Program, ver. 1.5 (U.S. Environmental Protection Agency, Washington, DC, USA).
These compounds were also tested for their feeding toxicities using a leaf-dipping method.

[5] = tested on: hemocyte phagocytosis of S. exigua; assay: Phagocytosis assay with FITC-labeled E. coli in L5 larvae; format: in vivo, Spodoptera exigua; settings: for Median Inhibitory Concentration (IC50), Phagocytosis: injected into L5 larvae with FITC-labeled E. coli; for Inhibition of phagocytosis (in words): S. exigua hemocytes
Procedure: For in vivo phagocytosis assay, test chemical (1 µL) and FITC-labeled E. coli (5 µL, 5 × 10^4 cells/µL) were injected to L5 larva. Hemolymph (50 µL) was collected at 15 min after injection and mixed with 50 µL of ice cold ACB. After centrifugation at 700 × g for 3 min at 4 °C, the supernatant plasma was replaced with 100 µL of TC-100 insect cell culture medium (Welgene, Daegu, Korea). Hemocyte suspension (10 µL) was placed onto a slide and over laid with 10 µL glycerol (50%, v/v). Hemocytes undergoing phagocytosis were determined by fluorescence-emitting cells under a fluorescence microscope (Leica, Wetzlar, Germany) at 40× magnification. For in vitro phagocytosis, hemocyte suspension and labeled bacteria mixture (30 µL) were incubated in a dark place for 1 h at room temperature. Hemocytes were then washed three times with PBS by centrifugation at 700× g for 2 min at 4 °C and finally resuspended in TC-100 medium. This hemocyte suspension was observed under the fluorescence microscope in FITC or DIC mode after forming monolayers on glass slides.

[6] = tested on: hemocyte PLA2 of S. exigua; assay: Nonspecific (total) hemocyte PLA2 activity, pyrene-labeled phospholipid fluorometric assay; format: biochemical, Spodoptera exigua; settings: for Median Inhibitory Concentrations (IC50), Total PLA2: hemocyte extract of S. exigua L5 larvae, synthetic compounds; for Inhibitory activity against hemocyte PLA2 (in words): S. exigua hemocyte PLA2, extracts, fractions or synthetic compounds
Procedure: Hemocyte PLA2 activity was fluorometrically determined with a pyrene-labeled phospholipid substrate using a spectrofluorometer (VICTOR multi-label plate reader, PerkinElmer, Waltham, MA, USA) at excitation and emission wavelengths of 345 and 398 nm, respectively. For measuring PLA2 activity, hemolymph was collected from ~10 L5 larvae. Hemocytes and plasma were separated by centrifugation at 800× g for 3 min at 4 °C. Hemocytes were then homogenized in 500 µL of PBS with a polytron (Ultra-Turrax T8, Ika Laboratory, Funkentshort, Germany). After centrifugation at 14,000× g for 5 min at 4 °C, protein concentration of the supernatant was determined by Bradford assay using bovine serum albumin (BSA) as the standard. The reaction mixture was prepared in a 96-well microplate by adding 129 μL of 50 mM Tris buffer (pH 7.0), 2 μL of 1 M CaCl2, and 2 μL of 10% BSA into each well. A sample solution consisted of 5 μL of test bacterial metabolites and 10 μL of hemocyte enzyme extract ([…]). The plate was then incubated at room temperature for 30 min. Enzyme reaction was then initiated by adding pyrene-labeled PL substrate (2 μL) to the reaction mixture.

[7] = tested on: cytosolic PLA2 (cPLA2); assay: Cytosolic PLA2 (cPLA2) activity; format: biochemical, Spodoptera exigua; settings: for Median Inhibitory Concentrations (IC50), cPLA2: S. exigua, synthetic compounds; for Potency for inhibiting cPLA2 (in words): based on IC50 values
Procedure: as §1

[8] = tested on: Sf9 cells; assay: Cytotoxicity test (MTT); format: cell-based; settings: for Cytotoxicity (MIC, minimum inhibitory concentration): MTT, 24 h at 28 °C
Procedure: Cytotoxicity of each secondary metabolite was evaluated by 3-(4,5 dimethylthiazol-2-yl)-2,5-diphenyl tetrazolium bromide (MTT) assay according to the method described by Mollah et al.. with a slight modification. Briefly, Sf9 cells (1.2 × 10^4 cells in 200 μL of TC-100 medium) were seeded into each 96-well. After adding each test chemical (2.5 μL in DMSO), the plate was incubated at 28 °C for 24 h. Control cells were treated with 2.5 μL of DMSO. After 24 h incubation, 10 μL of MTT (5 mg/mL in PBS) was added to each well and cells were cultured for another 4 h at 28 °C. Formazan granules formed in viable cells were dissolved in 50 μL of DMSO. Absorbance was then measured at 540 nm using a microplate reader (Victor Multilabel Plate Reader, PerkinElmer, Waltham, MA, USA).

[9] = tested on: S. exigua larvae; assay: Effect on pathogenicity of Bacillus thuringiensis (oral, leaf dipping); format: in vivo, Spodoptera exigua; settings: cabbage leaf dipped in Bt 500 ppm mixed with inhibitor 500 ppm; 4 days after treatment
Procedure: as §2

[10] = tested on: S. exigua larvae; assay: Effect on pathogenicity of X. hominickii (co-injection); format: in vivo, Spodoptera exigua; settings: L5 larvae injected with Xh 10^2 cfu/larva along with inhibitor (5 µg/larva Fig. 7A; 2 µg/larva Fig. S6); 4 days after treatment
Procedure: as §2, with “After surface sterilization with 95% ethanol, each L5 larva was injected with 1 µL of test compound (1 µg/larva) along with bacterial suspension (10^2 cfu/larva).” left out

Compound | Insecticidal Activities, Injection [1] | Median Inhibitory Concentrations (IC50), sPLA2 [2] | Potency for inhibiting sPLA2 (in words) [2] | Median Inhibitory Concentration (IC50), Nodulation [3] | Insecticidal Activities, Feeding [4] | Median Inhibitory Concentration (IC50), Phagocytosis [5] | Median Inhibitory Concentrations (IC50), Total PLA2 [6] | Median Inhibitory Concentrations (IC50), cPLA2 [7] | Cytotoxicity (MIC, minimum inhibitory concentration) [8] | Rescue of suppressed nodule formation by AA addition ([3]; AA 10 µg/larva co-injected with extract, subfraction or compound and E. coli) | Reversal of suppressed phagocytosis by AA addition ([5]; AA 10 µg/larva with the eight compounds) | Killing of larvae after injection (in words) ([1]; individually injected to S. exigua larvae) | Effect on B. thuringiensis insecticidal activity [9] | Inhibition of nodule formation (in words) ([3]; S. exigua L5 larvae, E. coli challenge) | Feeding (oral) toxicity (in words) ([4]; leaf-dipping method) | Inhibition of phagocytosis (in words) [5] | Inhibitory activity against hemocyte PLA2 (in words) [6] | Potency for inhibiting cPLA2 (in words) [7] | Concentration inducing cytotoxicity [8] | Effect on X. hominickii pathogenicity / insecticidal activity [10]
CCCCCCCCCCCCCCCCCCCCCC [DS, docosane] | 49.54 ± 4.55 a µg/larva | 1.22 ± 0.15 a µg/mL | least potent | 1.11 ± 0.09 b ng/larva | 3554.0 ± 100.18 a µg/mL | 8.40 ± 0.68 b ng/larva | 0.81 ± 0.04 b µg/mL | 0.32 ± 0.02 b µg/mL | 1.0 ± 0.03 a µg/mL |  |  |  |  |  |  |  |  |  |  | 
CCCCC(CC)CO (stereo not shown) [EH, 2-ethyl-1-hexanol] | 29.90 ± 3.05 c µg/larva | 0.05 ± 0.004 f µg/mL | highly potent | 0.40 ± 0.03 e ng/larva | 2456.35 ± 50.88 e µg/mL |  | 0.14 ± 0.01 µg·days/mL | 0.11 ± 0.01 µg·days/mL | 0.20 ± 0.02 e µg/mL |  |  |  |  |  |  |  |  |  |  | 
CCCCCC=CCC=CCC=CCC=CCCCC(=O)O [AA, 5,8,11,14-eicosatetraenoic acid, reference compound] |  |  |  |  |  |  |  |  |  | significantly (p < 0.05) rescued | reversed |  |  |  |  |  |  |  |  | 
CCOc1cc(O)ccc1OC [EMP, 3-ethoxy-4-methoxyphenol] | 18.95 ± 2.61 d µg/larva | 0.03 ± 0.005 f µg/mL | highly potent | 0.20 ± 0.02 f ng/larva | 2100.34 ± 40.19 f µg/mL | 0.20 ± 0.03 g ng/larva | 0.04 ± 0.02 e µg/mL | 0.05 ± 0.004 ef µg/mL | 0.1 ± 0.01 f µg/mL |  |  | most potent | significantly (p < 0.05) increased | high potency | most potent | highly potent | most potent | highly potent | less than 1 µg/mL | significantly (p < 0.05) increased
N#Cc1ccccc1C(=O)O [CBA, o-cyanobenzoic acid] | 54.96 ± 4.03 a µg/larva | 1.11 ± 0.11 a µg/mL | least potent | 2.50 ± 0.22 a ng/larva | 2850.65 ± 80.68 c µg/mL | 32.50 ± 2.35 a ng/larva | 0.86 ± 0.02 a µg/mL | 0.38 ± 0.03 a µg/mL | 0.50 ± 0.02 c µg/mL |  |  |  |  |  |  | least potent | least potent | least potent |  | 
